Experimental data reported in ChEMBL document CHEMBL1156829 (Proc Natl Acad Sci U S A, 2008).

Columns and labels:
[1] = system: Plasmodium falciparum; experiment: NOVARTIS: Inhibition of Plasmodium falciparum 3D7 (drug-susceptible) proliferation in erythrocyte-based infection assay; type: functional, organism-based; conditions: Plasmodium falciparum, 3D7
[2] = system: Plasmodium falciparum; experiment: NOVARTIS: Inhibition of Plasmodium falciparum W2 (drug-resistant) proliferation in erythrocyte-based infection assay; type: functional, organism-based; conditions: Plasmodium falciparum, W2; read-out: EC50
[3] = NOVARTIS: Cytotoxicity against human hepatocellular carcinoma cell line (Huh7); type: toxicity, cell-based, Huh-7; conditions: Huh7 cells (hepatocellular carcinoma cell line)

SMILES	EC50 [1] [nM]	EC50 [2] [nM]	CC50 [3] [µM]
O=C(Nc1ccc(-c2noc(CCc3ccccc3)n2)cc1)c1cccs1	903	554	15.7
O=C1C(=Nc2cccc(C(F)(F)F)c2)c2ccccc2N1CN1CCc2ccccc2C1	8380	3710	> 100
CC1=CC(=C(C#N)c2nc3ccccc3s2)C=C(C)N1c1ccc2c(c1)OCO2	1040	3710	> 100
CCOC(=O)c1cnc2ccc3c(c(C)c(C)n3C)c2c1O	370	370	> 10
COc1ccc(C(=O)C(C#N)=CNC2CCN(Cc3ccccc3)CC2)cc1	177	875	24.8
Cn1c(=O)n(C)c2cc(NC(=O)CCl)ccc21	1460	444	12.2
CCOC(=O)c1sc2ncnc(NCc3ccc(F)cc3)c2c1C	> 12500	> 3630	> 100
O=C1CN(C(=O)c2cc([N+](=O)[O-])c(N3CCCCC3)c([N+](=O)[O-])c2N2CCCCC2)c2ccccc2N1	2190	1830	50.4
CN(CCCNc1ccnc2cc(Cl)ccc12)C(=O)C1C[C@H]1c1ccccc1 (stereo not given in full)	76.1	411	> 11.6
O=C(Oc1ccccc1-c1nc2ccccn2c1NC1CCCCC1)c1ccc([N+](=O)[O-])cc1Cl	> 1250	352	> 10
COc1cccc(C(=O)N(C)CCCNc2ccnc3cc(Cl)ccc23)c1	390	208	5.93
COC(=O)C1=C(C)NC(=Cc2cc(C)n(-c3cc(Cl)ccc3Cl)c2C)C1=O	711	3680	> 100
CCN1/C(=C\C=C2/SC(=S)N(c3ccccc3)C2=O)C(C)(C)c2cc(-c3ccccc3)ccc21	128	318	> 8.66
Clc1ccc(-c2cn3c([n+]2-c2ccccc2)CCC3)cc1	257	3510	> 100
Cc1ccc(C2CC(C(F)(F)F)n3ncc(C(=O)Nc4ccc(Cl)cc4)c3N2)cc1 (stereo not given)	2870	3440	95
Cc1cc(C)cc(NC(=O)CCCn2c3ccccc3c(=O)c3cc(C)ccc32)c1	4280	3610	> 100
CC(=O)Nc1nc(-c2ccc(F)cc2)cs1	> 12500	3520	> 100
O=C(Nc1ccc(-c2nc3cc(NC(=O)C(c4ccccc4)c4ccccc4)ccc3[nH]2)cc1)C(c1ccccc1)c1ccccc1	4450	3680	> 100

SMILES	EC50 [1] [nM]	EC50 [2] [nM]	CC50 [3] [µM]
CC(C)CNC(=O)c1cc(NC(=O)c2cccs2)ccc1N1CCc2ccccc2C1	349	32.7	0.893
CCCC[n+]1c(-c2ccccc2)cc(-c2ccccc2)cc1-c1ccccc1	824	467	12.9
CC(=O)Nc1ccccc1OC(F)(F)F	> 349	468	> 13.2
Cc1cc(Nc2cccc(C(F)(F)F)c2)nc2ccc(NC(=O)c3cncc(Br)c3)cc12	2450	3000	> 84.4
O=C1CCC2C3C=CC(C3)C12 (stereo not given)	1780	447	> 12.4
Cc1cc(Nc2ccc(I)cc2)n2ncnc2n1	1560	3590	> 100
C[n+]1c2n(c3ccccc31)N=C(c1ccccc1)C[Se]2	471	832	23.6
CCC(c1nc2ccccc2c(=O)n1-c1ccccc1OC)N(CCc1ccccc1)C(=O)Nc1ccccc1OC (stereo not given)	1030	366	> 10
CC1(C)N=C(N)N=C(N)N1c1ccc(F)cc1	21.8	1860	51
C=C[C@H]1CN2CC[C@H]1C[C@@H]2[C@@H](OC(=O)CC)c1ccnc2ccccc12	220	370	> 10
O=C1C2C3c4ccccc4C(c4ccccc43)C2C(=O)N1CCO (stereo not given)	> 12500	3700	> 100
O=c1c(NCc2ccco2)nc2cc(Cl)ccc2n1CCNc1ncc(C(F)(F)F)cc1Cl	810	2330	63.8
COC(=O)c1sc(-c2ccccc2)cc1NC(=O)c1ccc(S(=O)(=O)N2CCCCCC2)cc1	> 1250	> 506	> 14.1
Brc1ccc(Nc2nc(NCC3CCCO3)c3ccccc3n2)cc1 (stereo not given)	468	349	9.78
CCC(CO)Nc1nccnc1-c1ccccc1Oc1ccccc1 (stereo not given)	4540	3560	> 100
CN1c2ccccc2N(C)C1c1ccco1	288	356	> 10
Cn1cc(S(=O)(=O)c2cccc(Cl)c2)c(=O)c2cc(F)c(N3CCCCC3)cc21	1030	> 372	> 10
